Measurements taken from PubChem BioAssay AID2060508 (Molecular Pharmacology Branch, DTP, NCI, 2025).

tested on: 454973-116-R2-J3-PDC spheroids, viability, % test/control; experiment: Anticancer human tumor 454973-116-R2-J3-PDC patient-derived pancreatic carcinoma cell line growth inhibition [GQUAD]; settings: second compound 0.316 µM; first compound 1 µM; stronger effect = lower value; spheroids with HUVEC and MSC
From the text: DNA G-quadruplex Stabilizer Agents in Combinations in Complex Spheroids
A high-throughput screen of multi-cell type tumor spheroids was designed to identify active combinations of DNA G-quadruplex stabilizer agents and targeted small molecules. Complex spheroids include a stromal component modeled by human endothelial cells (HUVEC) and fibroblasts modeled by human mesenchymal stem cells (MSCs). The concentration ranges selected for each drug and investigational agent were based upon clinically achievable concentrations if the clinical Cmax of the agent was known.
Compounds. The drugs and investigational agents: pidnarulex (CX-5461; NSC782164), APTO-253 (NSC789042), BRACO-19 (NSC847499), peposertib (NSC802822), ceralasertib (NSC780249), elimusertib (NSC800525), camonsertib (NSC841442), AZD-1390 (NSC803789), olaparib (NSC753686), talazoparib (NSC767125), ART-558 (NSC835418), sotorasib (NSC818433), MRTX-1133 (NSC836407), SN-38 (NSC673596), topotecan (NSC609699), etoposide (NSC141540), doxorubicin (NSC123127), gemcitabine (NSC613327), 5-fluorouracil (NSC19893), paclitaxel (NSC125973), vemurafenib (NSC761431), panobinostat (NSC761190), R-306465 (JNJ-16241199; NSC773264), adavosertib (NSC754352), TP-3654 (NSC805149), carboplatin (NSC241240), KSQ-4279 (NSC840948), and staurosporine (NSC755774) were obtained from the National Cancer Institute (NCI) Developmental Therapeutics Program Chemical Repository (34). The FDA-approved anticancer drug set is available from the NCI Developmental Therapeutics Program. […] The stock solutions were prepared in dimethyl sulfoxide (DMSO, Sigma-Aldrich, St. Louis, MO, cat. D2650) at 800-fold the tested concentration and stored at -70 degrees C prior to their use. All drugs and investigational agents were tested over a range starting from a high concentration at or near the clinical Cmax and decreasing in half-log increments. If the clinical Cmax for an agent had not been determined, the highest concentration tested was 10 microM.
2.3 Cell Culture. All cells were maintained in an incubator at 37 degrees C and 5% CO2 with 95% humidity. The PDC lines were cultured according to standard operating procedures established by the NCI PDMR. All PDCs were thawed and cultured in Matrigel-coated flasks prepared with a working solution of 1X Ham's F-12 nutrient mix, without supplementation (Invitrogen, cat. 11765054), 100 U/mL penicillin-streptomycin (Invitrogen, cat. 15140122), and 2.5% Matrigel (Corning Inc., cat. 354248) for the first three passages. The 857933-349-R-J2-PDC line was cultured in 6C/Colon 1B media, which includes advanced DMEM/F-12 (Thermo Fisher Scientific, cat. 12634028), 10 mM HEPES (Thermo Fisher Scientific, cat. 15630080), 1X GlutaMAX supplement (Thermo Fisher Scientific, cat. 35050061), 0.1 mg/mL primocin (InvivoGen, cat. ant-pm-2), 10% defined fetal bovine serum, heat inactivated (HyClone Laboratories Inc., cat. SH30070.03HI), 50% L-WRN conditioned media (ATCC, cat. CRL-3276), 1.25 mM N-Acetyl-L-cysteine (Sigma-Aldrich, cat. A9165), 10 mM nicotinamide (Sigma-Aldrich, cat. N0636), 1X B-27 supplement (Thermo Fisher Scientific, cat. 17504044), 1X N-2 supplement (Thermo Fisher Scientific, cat. 17502048), 10 microM Y-27632 dihydrochloride (Tocris Bioscience, cat. 1254), and 50 ng/mL human EGF recombinant protein (Thermo Fisher Scientific, cat. PHG0311). The 485176-168-R4-J1-PDC line was cultured in Panc media, which includes all 6C/Colon 1B media components plus 100 ng/mL human FGF-10 (Thermo Fisher Scientific, cat. 100-26), 500 nM SB-431542 (Selleckchem, cat. S1067), and gastrin (Tocris, cat. 3006).
[…]
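Further: spheroids exposed to compounds for seven days.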

Row | Compound | viability, T/C
1 | C#Cc1c(F)ccc2cc(O)cc(-c3ncc4c(N5CC6CCC(C5)N6)nc(OCC56CCCN5CC(F)C6)nc4c3F)c12 (stereo unspecified) + CN(C)c1ccc(Nc2c3ccc(NC(=O)CCN4CCCC4)cc3nc3cc(NC(=O)CCN4CCCC4)ccc23)cc1 | 21.4%
2 | CC(C)n1c(=O)n(C)c2cnc3cc(F)c(-c4ccc(OCCCN5CCCCC5)nc4)cc3c21 + CN(C)c1ccc(Nc2c3ccc(NC(=O)CCN4CCCC4)cc3nc3cc(NC(=O)CCN4CCCC4)ccc23)cc1 | 89.1%
3 | Nc1ccn(C2OC(CO)C(O)C2(F)F)c(=O)n1 (stereo unspecified) + CN(C)c1ccc(Nc2c3ccc(NC(=O)CCN4CCCC4)cc3nc3cc(NC(=O)CCN4CCCC4)ccc23)cc1 | 14.8%
4 | O=c1[nH]cc(F)c(=O)[nH]1 + CN(C)c1ccc(Nc2c3ccc(NC(=O)CCN4CCCC4)cc3nc3cc(NC(=O)CCN4CCCC4)ccc23)cc1 | 81.1%

same assay, conditions: second compound 0.316 µM; first compound 3.16 µM; stronger effect = lower value; spheroids with HUVEC and MSC

Row | Compound | viability, T/C
5 | C#Cc1c(F)ccc2cc(O)cc(-c3ncc4c(N5CC6CCC(C5)N6)nc(OCC56CCCN5CC(F)C6)nc4c3F)c12 (stereo unspecified) + CN(C)c1ccc(Nc2c3ccc(NC(=O)CCN4CCCC4)cc3nc3cc(NC(=O)CCN4CCCC4)ccc23)cc1 | 17.4%
6 | CC(C)n1c(=O)n(C)c2cnc3cc(F)c(-c4ccc(OCCCN5CCCCC5)nc4)cc3c21 + CN(C)c1ccc(Nc2c3ccc(NC(=O)CCN4CCCC4)cc3nc3cc(NC(=O)CCN4CCCC4)ccc23)cc1 | 75.1%
7 | Nc1ccn(C2OC(CO)C(O)C2(F)F)c(=O)n1 (stereo unspecified) + CN(C)c1ccc(Nc2c3ccc(NC(=O)CCN4CCCC4)cc3nc3cc(NC(=O)CCN4CCCC4)ccc23)cc1 | 13.3%
8 | O=c1[nH]cc(F)c(=O)[nH]1 + CN(C)c1ccc(Nc2c3ccc(NC(=O)CCN4CCCC4)cc3nc3cc(NC(=O)CCN4CCCC4)ccc23)cc1 | 35.1%

same assay, conditions: second compound 0.316 µM; first compound 10 µM; stronger effect = lower value; spheroids with HUVEC and MSC

Row | Compound | viability, T/C
9 | C#Cc1c(F)ccc2cc(O)cc(-c3ncc4c(N5CC6CCC(C5)N6)nc(OCC56CCCN5CC(F)C6)nc4c3F)c12 (stereo unspecified) + CN(C)c1ccc(Nc2c3ccc(NC(=O)CCN4CCCC4)cc3nc3cc(NC(=O)CCN4CCCC4)ccc23)cc1 | 15.7%
10 | CC(C)n1c(=O)n(C)c2cnc3cc(F)c(-c4ccc(OCCCN5CCCCC5)nc4)cc3c21 + CN(C)c1ccc(Nc2c3ccc(NC(=O)CCN4CCCC4)cc3nc3cc(NC(=O)CCN4CCCC4)ccc23)cc1 | 73.8%
11 | Nc1ccn(C2OC(CO)C(O)C2(F)F)c(=O)n1 (stereo unspecified) + CN(C)c1ccc(Nc2c3ccc(NC(=O)CCN4CCCC4)cc3nc3cc(NC(=O)CCN4CCCC4)ccc23)cc1 | 14.8%
12 | O=c1[nH]cc(F)c(=O)[nH]1 + CN(C)c1ccc(Nc2c3ccc(NC(=O)CCN4CCCC4)cc3nc3cc(NC(=O)CCN4CCCC4)ccc23)cc1 | 38.6%

same assay, conditions: second compound 1 µM; first compound 0.0316 µM; stronger effect = lower value; spheroids with HUVEC and MSC

Row | Compound | viability, T/C
13 | C#Cc1c(F)ccc2cc(O)cc(-c3ncc4c(N5CC6CCC(C5)N6)nc(OCC56CCCN5CC(F)C6)nc4c3F)c12 (stereo unspecified) + CN(C)c1ccc(Nc2c3ccc(NC(=O)CCN4CCCC4)cc3nc3cc(NC(=O)CCN4CCCC4)ccc23)cc1 | 49.4%
14 | CC(C)n1c(=O)n(C)c2cnc3cc(F)c(-c4ccc(OCCCN5CCCCC5)nc4)cc3c21 + CN(C)c1ccc(Nc2c3ccc(NC(=O)CCN4CCCC4)cc3nc3cc(NC(=O)CCN4CCCC4)ccc23)cc1 | 99.6%
15 | Nc1ccn(C2OC(CO)C(O)C2(F)F)c(=O)n1 (stereo unspecified) + CN(C)c1ccc(Nc2c3ccc(NC(=O)CCN4CCCC4)cc3nc3cc(NC(=O)CCN4CCCC4)ccc23)cc1 | 15.6%
16 | O=c1[nH]cc(F)c(=O)[nH]1 + CN(C)c1ccc(Nc2c3ccc(NC(=O)CCN4CCCC4)cc3nc3cc(NC(=O)CCN4CCCC4)ccc23)cc1 | 92.5%

same assay, conditions: second compound 1 µM; first compound 0.1 µM; stronger effect = lower value; spheroids with HUVEC and MSC

Row | Compound | viability, T/C
17 | C#Cc1c(F)ccc2cc(O)cc(-c3ncc4c(N5CC6CCC(C5)N6)nc(OCC56CCCN5CC(F)C6)nc4c3F)c12 (stereo unspecified) + CN(C)c1ccc(Nc2c3ccc(NC(=O)CCN4CCCC4)cc3nc3cc(NC(=O)CCN4CCCC4)ccc23)cc1 | 33.1%
18 | CC(C)n1c(=O)n(C)c2cnc3cc(F)c(-c4ccc(OCCCN5CCCCC5)nc4)cc3c21 + CN(C)c1ccc(Nc2c3ccc(NC(=O)CCN4CCCC4)cc3nc3cc(NC(=O)CCN4CCCC4)ccc23)cc1 | 99.3%
19 | Nc1ccn(C2OC(CO)C(O)C2(F)F)c(=O)n1 (stereo unspecified) + CN(C)c1ccc(Nc2c3ccc(NC(=O)CCN4CCCC4)cc3nc3cc(NC(=O)CCN4CCCC4)ccc23)cc1 | 14.4%
20 | O=c1[nH]cc(F)c(=O)[nH]1 + CN(C)c1ccc(Nc2c3ccc(NC(=O)CCN4CCCC4)cc3nc3cc(NC(=O)CCN4CCCC4)ccc23)cc1 | 99%

same assay, conditions: second compound 1 µM; first compound 0.316 µM; stronger effect = lower value; spheroids with HUVEC and MSC

Row | Compound | viability, T/C
21 | C#Cc1c(F)ccc2cc(O)cc(-c3ncc4c(N5CC6CCC(C5)N6)nc(OCC56CCCN5CC(F)C6)nc4c3F)c12 (stereo unspecified) + CN(C)c1ccc(Nc2c3ccc(NC(=O)CCN4CCCC4)cc3nc3cc(NC(=O)CCN4CCCC4)ccc23)cc1 | 26.9%
